Measurements as given in patent US9073835B2, “N-acylthiourea and N-acylurea inhibitors of the Hedgehog protein signalling pathway” (Centre National De La Recherche Scientifique, priority 2008, dated 2015).

Test system: Hedgehog protein signaling pathway
Test: Inhibition of SAG-induced alkaline phosphatase activity (differentiation) in C3H10T1/2 cells
Type: cell-based
Settings: Mus musculus; for inhibition at 10 µM: C3H 10T1/2, 10 μM test compound, percentage of alkaline phosphatase activity induced by SAG; for IC50: C3H 10T1/2, after induction by 0.1 μM SAG
Description: The effect of compounds with formula (I) as claimed in the invention on inhibition of the Hedgehog protein signaling pathway was determined by analysis of differentiation in the pluripotent fibroblast cell line C3H10T1/2 after activation of this pathway in these cells using a synthetic activator: SAG.
The compounds with formula (I) to be tested were dissolved in dimethylsulfoxide to a concentration of 10 mM, then stored at a temperature of −20° C. until use.
The pluripotent fibroblast cell line C3H10T1/2 (ATCC) was cultivated under the conditions recommended by the ATCC. These cells were activated using 0.1 μM of SAG, employing the methods described by Chen et al., Proc. Natl. Acad. Sci. USA, 2002, 99, 14071 and Frank-Kamenetsky et al., J. Biol., 2002, 1, 10.
Activation with SAG provokes differentiation of the cell line and allows them to express alkaline phosphatase. It is then possible to measure the activity of the Hedgehog protein signaling pathway by measuring the alkaline phosphatase activity.
The C3H10T1/2 cells were plated onto 96-well plates at a density of […], 24 hours before addition of the test compounds in a concentration of 1 nM to 30 μM and in the presence of 0.1 μM of SAG using DMEM supplemented with 10% fetal calf serum as the culture medium. The tests were carried out in quadruplicate. The plates were then incubated for 5-6 days at a temperature of 37° C. in an atmosphere of 5% CO2. The cells were washed in a cold phosphate buffer (“Phosphate Buffer Serum”: PBS) then lysed by sonication at 4° C. in 50 μl of a solution containing 0.9% of NaCl and 0.2% of Triton X-100.
By way of comparison, the activity of a known inhibitor of the Hedgehog protein signaling pathway, CURIS 61 414, as described, for example, by Frank-Kamenetsky M. et al. (J. Biol., 2002, 1, 10), was tested under the same conditions as those used to test the various compounds with formula (I) as claimed in the invention.
The alkaline phosphatase activity measurement in the lysates obtained was then carried out using the method described by Pepinsky et al. (J. Biol. Chem., 1998, 273, 14037). After adding 100 μl of reaction buffer (200 mM Tris-HCl; pH 10.5; 0.4 M of 2-amino-2-methylpropanol and 8 mM of MgCl2) and 50 μl of substrate (4 mM of disodium p-nitrophenyl phosphate), the lysates were incubated at 37° C. for 30-60 min, then the optical density was read at a wavelength of 415 nm.

| Compound | inhibition at 10 µM [%] | IC50 [µM] |
| --- | --- | --- |
| COc1cc(C(=O)NC(=S)Nc2ccc(F)c(NC(=O)c3ccccc3)c2)cc(OC)c1OC [Compound 24, N-[[[4-fluoro-3-(benzoylamino)phenyl]amino]thioxomethyl]-3,4,5-methoxy-benzamide] | > 80 |  |
| COc1ccc(C(=O)NC(=S)Nc2cccc(NC(=O)c3ccccc3)c2)c(OC)c1 [Compound 22, N-[[[3-(benzoylamino)phenyl]amino]thioxomethyl]-2,4-methoxy-benzamide] | 20 to 80 | 1 to 3 |
| COc1cc(C(=O)NC(=S)Nc2ccc(Cl)c(C(=O)Nc3ccc(N(C)C)cc3)c2)cc(OC)c1OC [Compound 39] | > 80 | 1 to 3 |
| COc1cc(C(=O)NC(=S)Nc2cccc(NC(=O)Nc3ccccc3)c2)cc(OC)c1OC [Compound 51, 3,4,5-trimethoxy-N-(3-(3-phenylureido)phenylcarbamothioyl)-benzamide] | > 80 | 1 to 3 |
| COc1cc(C(=O)NC(=S)Nc2ccc(Cl)c(C(=O)Nc3ccccc3)c2)cc(OC)c1OC [Compound 25, N-[[[4-chloro-3-(phenylamino)carbonyl]amino]thioxomethyl]-3,4,5-methoxy-benzamide] | > 80 |  |
| COc1cc(C(=O)NC(=O)Nc2cccc(NC(=O)c3ccccc3)c2)cc2c1OCO2 [Compound 30, N-[[[3-(benzoylamino)phenyl]amino]oxomethyl]-3,4-methylenedioxy-5-methoxy-benzamide] | 5 to 20 |  |
| COc1ccc(NC(=S)NC(=O)c2cc(OC)c(OC)c(OC)c2)cc1NC(=O)c1ccccc1 [Compound 26, N-[[[4-methoxy-3-(benzoylamino)phenyl]amino]thioxomethyl]-3,4,5-methoxy-benzamide] | 20 to 80 |  |
| COc1cc(C(=O)NC(=S)Nc2ccc(C)c(-c3nc4ccccc4[nH]3)c2)cc(OC)c1OC [Compound 56, N-(3-(1H-benzo[d]imidazol-2-yl)-4-methylphenylcarbamothioyl)-3,4,5-trimethoxybenzamide] | 20 to 80 |  |
| COc1cc(C(=O)NC(=O)Nc2cccc(NC(=O)Nc3ccc(-c4ccccc4)cc3)c2)cc(OC)c1OC [Compound 59, N-(3-(3-biphenyl-4-ylureido)phenylcarbamoyl)-3,4,5-trimethoxybenzamide] | > 80 |  |
| COc1cc(C(=O)NC(=S)Nc2cccc(NC(=O)c3cccc4ccccc34)c2)cc(OC)c1OC [Compound 12, N-[[[3-(1-naphthoylamino)phenyl]amino]thioxomethyl]-3,4,5-methoxy-benzamide] | 20 to 80 |  |
| COc1cc(C(=O)NC(=S)Nc2ccc(Cl)c(NC(=O)c3ccccc3)c2)cc(OC)c1OC [Compound 34, N-[[[4-chloro-3-(benzoylamino)phenyl]amino]thioxomethyl]-3,4,5-methoxy-benzamide] | > 80 | 0.01 to 1 |
| COc1cc(C(=O)NC(=S)Nc2cccc(NC(=O)Nc3ccc(-c4ccccc4)cc3)c2)cc(OC)c1OC [Compound 52, N-(3-(3-biphenyl-4-ylureido)phenylcarbamothioyl)-3,4,5-trimethoxybenzamide] | > 80 | 0.01 to 1 |
| COc1ccc(NC(=O)c2cc(NC(=S)NC(=O)c3cc(OC)c(OC)c(OC)c3)ccc2Cl)cc1 [Compound 40] | 20 to 80 |  |
| O=C(NC(=S)Nc1cccc(NC(=O)c2ccccc2)c1)c1ccc2c(c1)OCCO2 [Compound 28, N-[[[3-(benzoylamino)phenyl]amino]thioxomethyl]-3,4-ethylenedioxo-benzamide] | 5 to 20 |  |
| COc1cc(C(=O)NC(=S)Nc2cccc(NC(=O)C(C)C)c2)cc(OC)c1OC [Compound 10, N-[[[3-(isopropoylcarboxylamino)phenyl]amino]thioxomethyl]-3,4,5-methoxy-benzamide] | 5 to 20 |  |
| COc1cc(C(=O)NC(=S)Nc2cccc(NC(=O)c3cccs3)c2)cc(OC)c1OC [Compound 15, N-[[[3-(2-thiophenoylamino)phenyl]amino]thioxomethyl]-3,4,5-methoxy-benzamide] | 20 to 80 |  |
| COc1cccc(C(=O)Nc2cccc(NC(=S)NC(=O)c3cc(OC)c(OC)c(OC)c3)c2)c1 [Compound 3, N-[[[3-(3-methoxy-benzoylamino)phenyl]amino]thioxomethyl]-3,4,5-methoxy-benzamide] | > 80 | 1 to 3 |

| Compound | inhibition at 10 µM [%] | IC50 [µM] |
| --- | --- | --- |
| CCOc1c(OC)cc(C(=O)NC(=S)Nc2cccc(NC(=O)c3ccccc3)c2)cc1OC [Compound 19, N-[[[3-(benzoylamino)phenyl]amino]thioxomethyl]-3,5-methoxy-4-ethoxy-benzamide] | > 80 | 0.01 to 1 |
| COc1cc(C(=O)NC(=O)Nc2ccc(Cl)c(C(=O)Nc3ccccc3)c2)cc(OC)c1OC [Compound 44] | 20 to 80 |  |
| COc1cc(C(=O)NC(=S)Nc2cccc(NC(=O)c3ccncc3)c2)cc(OC)c1OC [Compound 11, N-[[[3-(4-pyridocarboxylamino)phenyl]amino]thioxomethyl]-3,4,5-methoxy-benzamide] | > 80 |  |
| COc1cc(C(=O)NC(=S)Nc2cccc(NC(=O)c3ccc(Cl)cc3)c2)cc(OC)c1OC [Compound 13, N-[[[3-(4-chloro-benzoylamino)phenyl]amino]thioxomethyl]-3,4,5-methoxy-benzamide] | > 80 | 0.01 to 1 |
| COc1cc(C(=O)NC(=O)Nc2ccc(Cl)c(NC(=O)c3ccccc3)c2)cc(OC)c1OC [Compound 33, N-[[[4-chloro-3-(benzoylamino)phenyl]amino]oxomethyl]-3,4,5-methoxy-benzamide] | 20 to 80 |  |
| COc1cc(C(=O)NC(=S)Nc2cccc(NC(=O)c3ccccc3)c2)cc2c1OCO2 [Compound 21, N-[[[3-(benzoylamino)phenyl]amino]thioxomethyl]-3,4-methylenedioxy-5-methoxy-benzamide] | > 80 | 1 to 3 |
| COc1cc(C(=O)NC(=O)Nc2cccc(NC(=O)C(C)C)c2)cc(OC)c1OC [Compound 17] | > 80 |  |
| O=C(NC(=O)c1ccccc1)Nc1cccc(NC(=O)c2ccccc2)c1 [Compound 50, N-[[[-3-(benzoylamino)phenyl]amino]oxomethyl]-benzamide] | > 80 |  |
| COc1cc(C(=O)NC(=O)Nc2ccc(Cl)c(NC(=O)c3ccc(-c4ccccc4)cc3)c2)cc(OC)c1OC [Compound 37, N-[[[4-Chloro-3-(4-phenyl-benzoylamino)phenyl]amino]oxomethyl]-3,4,5-methoxy-benzamide] | 20 to 80 |  |
| CCOc1cc(C(=O)NC(=S)Nc2cccc(NC(=O)c3ccccc3)c2)cc(OCC)c1OCC [Compound 23, N-[[[3-(benzoylamino)phenyl]amino]thioxomethyl]-3,4,5-ethoxy-benzamide] | > 80 | 0.01 to 1 |
| COc1cc(C(=O)NC(=S)Nc2ccc(C)c(NC(=O)c3ccccc3)c2)cc(OC)c1OC [Compound 27, N-[[[4-methyl-3-(benzoylamino)phenyl]amino]thioxomethyl]-3,4,5-Methoxy-benzamide] | 20 to 80 |  |
| COc1cc(C(=O)NC(=O)Nc2cccc(NC(=O)c3ccc4ccccc4c3)c2)cc(OC)c1OC [Compound 16, N-[[[3-(2-naphthoylamino)phenyl]amino]oxomethyl]-3,4,5-methoxy-benzamide] | 5 to 20 |  |
| COc1cc(C(=O)NC(=S)Nc2cccc(NC(=O)c3ccco3)c2)cc(OC)c1OC [Compound 14, N-[[[3-(2-furoylamino)phenyl]amino]thioxomethyl]-3,4,5-methoxy-benzamide] | 20 to 80 |  |
| COc1cc(C(=O)NC(=S)Nc2cccc(NC(=O)C3CCCCC3)c2)cc(OC)c1OC [Compound 8, N-[[[3-(-cyclohexylcarboxylamino)phenyl]amino]thioxomethyl]-3,4,5-methoxy-benzamide] | 20 to 80 |  |
| COc1cc(OC)c(C(=O)NC(=O)Nc2cccc(NC(=O)c3ccccc3)c2)cc1OC [Compound 48, N-[[[-3-(benzoylamino)phenyl]amino]oxomethyl]-2,4,5-methoxy-benzamide] | 20 to 80 | 1 to 3 |
| COc1cc(C(=O)NC(=S)Nc2cc(Cl)cc(NC(=O)c3ccccc3)c2)cc(OC)c1OC [Compound 35, N-[[[5-chloro-3-(benzoylamino)phenyl]amino]thioxomethyl]-3,4,5-methoxy-benzamide] | 20 to 80 |  |
